The values below come from patent publication US8642632B2, “Selective androgen receptor modulators” (Radius Health, Inc., priority 2010, dated 2014).

Bounds are passed on as bounds.

One may read the IC50 as the point on the concentration scale where inhibition reaches its midpoint. Lower therefore signals higher potency.

For one experiment, the target named is T1, androgen receptor (Rattus norvegicus, UniProt P15207).
T1 construct: purchased Invitrogen, Madison, Wis
T1 sequence (P15207 651-902 limits assumed): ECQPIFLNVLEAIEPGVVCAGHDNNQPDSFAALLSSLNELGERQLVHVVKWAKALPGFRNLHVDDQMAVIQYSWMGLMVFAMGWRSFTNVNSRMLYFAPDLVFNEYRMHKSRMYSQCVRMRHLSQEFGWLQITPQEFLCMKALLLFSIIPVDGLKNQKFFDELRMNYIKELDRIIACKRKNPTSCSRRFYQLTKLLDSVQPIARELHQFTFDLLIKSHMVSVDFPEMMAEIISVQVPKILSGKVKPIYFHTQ
Briefly: androgen receptor binding assay (fluorescence polarization, Invitrogen AR-Fluormone).
Details: not given
How it is done:
The assay was performed as specified by the manufacturer (Invitrogen, Madison, Wis.). Briefly, 1 μl of 10 mM compound was added to 500 μl of AR screening buffer in a 1.5 ml eppendorf tube to make a 2×10^−5M stock. 10-fold serial dilutions of the test compounds were prepared ranging in concentration from 10^−5M to 10^−12M. Each dilution was added in triplicate to a black 384-microtiter plate. The test compounds will be diluted 2-fold in the final reaction. 2×AR-Fluormone™ complex was prepared with 2 nM Flourmone AL Green™ and 30 nM AR. 25 μl of 2× complex was aliquoted to each reaction well, such that the final reaction volume was 50 μl per well. Plate was sealed with a foil cover and incubated in the dark at room temperature for 4 h. Polarization values for each well were measured. The polarization values were plotted against the concentration of the test compound. The concentration of the test compound that results in half-maximum shift equals the IC50 of the test compound. As a control, a competition curve for R1881 (methyltrienolone) was performed for each assay. Curve Fitting was performed using GraphPad Prism® software from GraphPad™ Software Inc. Binding data are reported as a single determination if the experiment was run once only and as the average of experiments if the binding experiment was performed two or more times with that compound.
The binding data shown in table 1 (below) is from the result of a single or multiple determinations based on the same compound. Where multiple data points have been taken, the value reported is the average of the multiple determinations.
In the case of `CC(C)(O)[C@@H](Nc1ccc(C#N)c(C(F)(F)F)c1)c1nnc(-c2ccc(F)cc2)o1` [Example 1, (R)-4-(1-(5-(4-fluorophenyl)-1,3,4-oxadiazol-2-yl)-2-hydroxy-2-methylpropylamino)-2-(trifluoromethyl)benzonitrile], the IC50 is greater than 1 µM.

`Cc1c(N[C@@H](c2nnc(-c3ccc(F)cc3)o2)C(C)(C)O)ccc(C#N)c1C(F)(F)F` [Example 2, (R)-4-(1-(5-(4-fluorophenyl)-1,3,4-oxadiazol-2-yl)-2-hydroxy-2-methylpropylamino)-3-methyl-2-(trifluoromethyl)benzonitrile]: the IC50 amounted to 0.04 µM.

As for `Cc1c(N[C@@H](c2nnc(-c3ccc(C#N)cc3)o2)C(C)(C)O)ccc(C#N)c1C(F)(F)F` [Example 3, (R)-4-(1-(5-(4-cyanophenyl)-1,3,4-oxadiazol-2-yl)-2-hydroxy-2-methylpropylamino)-3-methyl-2-(trifluoromethyl)benzonitrile], the IC50 was 0.03 µM.

Compound `CCCc1c(N[C@@H](c2nnc(-c3ccc(C#N)cc3)o2)[C@H](C)O)ccc(C#N)c1Cl` [Example 4, 2-Chloro-4-((1R,2S)-1-(5-(4-cyanophenyl)-1,3,4-oxadiazol-2-yl)-2-hydroxypropylamino)-3-propylbenzonitrile] displayed an IC50 of 0.0003 µM. The same measure, in the same setting: then `Cc1c(N[C@@H](c2nnc(-c3ccc(F)cc3)o2)C(C)(C)O)ccc(C#N)c1Cl` [Example 5, (R)-2-chloro-4-(1-(5-(4-fluorophenyl)-1,3,4-oxadiazol-2-yl)-2-hydroxy-2-methylpropylamino)-3-methylbenzonitrile], with 0.006 µM; and `Cc1c(N[C@@H](c2nnc(-c3ccc(C#N)cc3)o2)C(C)(C)O)ccc(C#N)c1Cl` [Example 6, (R)-2-chloro-4-(1-(5-(4-cyanophenyl)-1,3,4-oxadiazol-2-yl)-2-hydroxy-2-methylpropylamino)-3-methylbenzonitrile], with 0.004 µM; and `Cc1c(N[C@@H](c2nnc(-c3ccc(C#N)cc3)o2)[C@H](O)C(F)(F)F)ccc(C#N)c1Cl` [Example 7, 2-chloro-4-((1R,2S)-1-(5-(4-cyanophenyl)-1,3,4-oxadiazol-2-yl)-3,3,3-trifluoro-2-hydroxypropylamino)-3-methylbenzonitrile], with 0.29 µM.

Another experiment deals with castrated rat. Briefly: In vivo rat model of androgen and anabolic activity - rat Herschberger assay. Conditions: 3 mg/kg orally, once daily for 4 days, compared with Sham and testosterone propionate (TP) controls. An excerpt:
Organ and muscle weight is on Y-axis and the numbers refer to weight in milligrams. *ρ<0.05 compared to vehicle. ^ρ<0.05 compared to TP and sham.
The following is a typical procedure of the in vivo evaluation of the selective androgens of this invention. In particular, this assay looks primarily at the ability of the selective androgens of this invention to increase muscle size in an immature, castrated rat. In addition, androgenic effects are looked at primarily by weighing the prostate and seminal vesicles. Selective compounds will show a greater increase in the levator ani relative to the prostate and seminal vesicles when compared to testosterone treated, castrated animals or to intact animals that have not been treated. Immature Sprague Dawley male rats were obtained Charles River Laboratories (Stoneridge, N.Y.). All animals were maintained in a temperature and humidity controlled room with a 12 hr light: 12 hr dark cycle, with ad lib access to food (TD 291615, Teklad, Madison, Wis.) and water. Rats were anesthetized and orchidectomized (GDX) or sham surgery (SHAM) was performed. […] The prostate, seminal vesicle and levator ani and bulba cavernous (LABC) tissues were removed, weighed and recorded. Body weights were recorded for each animal at baseline and at sacrifice.
Take `Cc1c(N[C@@H](c2nnc(-c3ccc(F)cc3)o2)C(C)(C)O)ccc(C#N)c1Cl` [Example 5, (R)-2-chloro-4-(1-(5-(4-fluorophenyl)-1,3,4-oxadiazol-2-yl)-2-hydroxy-2-methylpropylamino)-3-methylbenzonitrile]: the “levator ani muscle (LABC) weight” value is “significantly above the non-castrated control (Sham) and testosterone propionate-treated (TP) controls”.
